Assay results: patent US12065445B2, “CDK2 inhibitors and methods of using the same” (Cedilla Therapeutics, Inc., priority 2021, dated 2024)

Tests used:
CDK2/Cyclin E1 = biological target: T1, CDK2/Cyclin E1 (Homo sapiens, UniProt P24941); test: CDK2/Cyclin E1 Caliper Assay (LabChip EZ Reader mobility shift); assay type: biochemical; details: read-out: Caliper Assay (CDK2/CCNE1): IC50
T1 construct: purchased Eurofins 14-475
Method: Inhibition of CDK2/Cyclin E1 activity in the presence of compounds of the present disclosure was evaluated using a Caliper LabChip® EZ Reader mobility shift assay. In the assay, CDK2/Cyclin E1 (Eurofins, 14-475) catalyzed the phosphorylation of a fluorescently tagged peptide 5-FAM-QSPKKG-CONH2 (PerkinElmer, FL Peptide 18) which induced a difference in capillary electrophoresis mobility. The peptide substrate and product were measured, and the conversion ratio was used to determine the inhibition (as % activity and IC50 values) of CDK2/Cyclin E1. Reactions contained 50 mM HEPES pH 7.5, 10 mM MgCl2, 1 mM EDTA, 2 mM DTT, 0.01% Brij35, 0.5 mg/mL BSA, 0.1% DMSO, 2.5 nM CDK2/Cyclin E1, 100 μM ATP, and 1.5 μM fluorescent peptide substrate.
Dose titrations of inhibitors in 100% DMSO were combined with 3.25 nM CDK2/Cyclin E1 and 130 μM of ATP in reaction buffer. The mixtures were incubated for 30 minutes before the addition of fluorescent peptide substrate to initiate the kinase reaction. The final conditions were 2.5 nM CDK2/Cyclin E1, 100 μM ATP, and 1.5 μM fluorescent peptide. The reactions were stopped after 100 minutes with the addition of EDTA (400 mM final EDTA concentration). The stopped reactions were analyzed on a Caliper LabChip® EZ Reader II. The conversion ratios were normalized to yield % activity, plotted against compound concentration, and fit to a four-parameter equation to determine the IC50 for each compound.

[1] = tested on: Kuramochi cells labeled with mApple-H2B; test: IncuCyte Cell Proliferation Assay; assay type: cell-based
How it was run: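 Cells imaged at 0 and 72 h after compound treatment (10 points, ½ log dilution, 20 μM top), with fluorescent nuclei counted. Fold change in count was normalized to DMSO wells and fitted to dose-response curves to give GI50.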

Kuramochi cells = test: BrdU Cell Proliferation Assay; assay type: cell-based; details: read-out: BrdU - KURAMOCHI.1: IC50
How it was run: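 Kuramochi cells were seeded at 2,000 cells/well, adhered overnight, then treated with a 10-point, 3-fold compound dilution series for 4 days. Proliferation was measured by a 1-hour BrdU pulse, anti-BrdU peroxidase colorimetric ELISA and 450 nm absorbance. Values were background-subtracted and normalized to DMSO wells.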

Row | SMILES | IC50 (CDK2/Cyclin E1) | IC50 ([1]; 72 hours) | IC50 (Kuramochi cells) | IC50 ([1]; 72 h)
1 | C[C@@H](OCC1CCC(F)(F)CC1)[C@H](NC(=O)C1CN(C(=O)c2cnn(Cc3ccc(F)cc3)c2)CC12CN(C(=O)C1(C(F)(F)F)CC1)C2)C(=O)N1CCC(F)(F)CC1 (single isomer, unassigned) [I-190B] | 0.1 to 1 µM | 5 to 20 µM | 0.5 to 5 µM | –
2 | CNC(=O)[C@@H](NC(=O)[C@@H]1CN(C(=O)c2cnco2)CC12CN(C(=O)[C@H]1CC1(C)C)C2)[C@@H](C)OCc1ccccc1 [I-39A] | 0.1 to 1 µM | – | > 10 µM | –
3 | CNC(=O)[C@@H](NC(=O)[C@@H]1CN(Cc2cccnc2)CC12CN(C(=O)[C@H]1CC1(C)C)C2)[C@@H](C)OCc1ccccc1 [I-49A] | > 10 µM | – | > 10 µM | –
4 | C[C@@H](OCc1ccccc1)[C@H](NC(=O)C1CN(C(=O)c2cnn(Cc3ccccc3)c2)CC12CN(C(=O)C1CC1(C)C)C2)C(=O)NCCCCCNC(=O)OC(C)(C)C (stereo partly shown) [I-52] | 0.01 to 0.1 µM | – | 0.5 to 5 µM | 0.5 to 5 µM
5 | C[C@@H](OCc1ccccc1)[C@H](NC(=O)C1CN(C(=O)c2cnn(Cc3ccccc3)c2)CC12CN(C(=O)C1CC1(C)C)C2)C(=O)NCCCCCN (stereo partly shown) [I-57] | 0.01 to 0.1 µM | – | > 10 µM | –
6 | CNC(=O)[C@@H](NC(=O)[C@H]1CN(CC2CCOCC2)CC12CN(C(=O)[C@H]1CC1(C)C)C2)[C@@H](C)OCc1ccccc1 [I-68B] | > 10 µM | – | > 10 µM | –
7 | CNC(=O)[C@@H](NC(=O)[C@@H]1CN(C(=O)c2cnn(Cc3ccccc3)c2)CC12CN(C(=O)C1(C(C)C)CC1)C2)[C@@H](C)OCc1ccccc1 [I-109A] | > 10 µM | – | > 10 µM | –
8 | COCC1CCCN(C(=O)[C@@H](NC(=O)[C@H]2CN(C(=O)c3cnn(Cc4ccccc4)c3)CC23CN(C(=O)[C@H]2CC2(C)C)C3)[C@@H](C)OCC2CCCCC2)C1 (stereo partly shown) [I-111] | 0.01 to 0.1 µM | – | ≤ 0.5 µM | 0.5 to 5 µM
9 | CNC(=O)[C@H](COCc1ccccc1)NC(=O)[C@H]1CN(C(=O)c2cnn(Cc3ccccc3)c2)CC12CN(C(=O)C1(C(F)(F)F)CC1)C2 [I-113B] | > 10 µM | – | > 10 µM | –
10 | C[C@@H](OCC1CCCCC1)[C@H](NC(=O)[C@@H]1CN(C(=O)c2cnn(Cc3ccccc3)c2)CC12CN(C(=O)[C@H]1CC1(C)C)C2)C(=O)N1CCC[C@H](N)C1 [I-150A] | ≤ 0.01 µM | – | 0.5 to 5 µM | –
11 | C[C@@H](OCC1CCCCC1)[C@H](NC(=O)[C@H]1CN(C(=O)c2cnn(Cc3ccccc3)c2)CC12CN(C(=O)[C@H]1CC1(C)C)C2)C(=O)N1CCC[C@H](N)C1 [I-150B] | 1 to 10 µM | – | > 10 µM | –
12 | C[C@@H]1C[C@H](C)CN(C(=O)[C@@H](NC(=O)[C@@H]2CN(C(=O)c3cn[nH]c3)CC23CN(C(=O)[C@H]2CC2(C)C)C3)[C@@H](C)OCC2CCCCC2)C1 [I-173A] | ≤ 0.01 µM | – | ≤ 0.5 µM | 0.5 to 5 µM
13 | C[C@@H]1C[C@H](C)CN(C(=O)[C@@H](NC(=O)[C@H]2CN(C(=O)c3cn[nH]c3)CC23CN(C(=O)[C@H]2CC2(C)C)C3)[C@@H](C)OCC2CCCCC2)C1 [I-173B] | 1 to 10 µM | – | > 10 µM | –
14 | C[C@@H](OCC1CCCCC1)[C@H](NC(=O)[C@@H]1CN(C(=O)c2cncs2)CC12CN(C(=O)[C@H]1CC1(C)C)C2)C(=O)N1CCC(F)(F)CC1 [I-192A] | ≤ 0.01 µM | – | ≤ 0.5 µM | ≤ 0.5 µM
15 | C[C@@H](OCC1CCCCC1)[C@H](NC(=O)[C@H]1CN(C(=O)c2cncs2)CC12CN(C(=O)[C@H]1CC1(C)C)C2)C(=O)N1CCC(F)(F)CC1 [I-192B] | 1 to 10 µM | – | > 10 µM | –
16 | CC(=O)N[C@H]1CCCN(C(=O)[C@@H](NC(=O)[C@@H]2CN(C(=O)c3cncs3)CC23CN(C(=O)[C@H]2CC2(C)C)C3)[C@@H](C)OCC2CCCCC2)C1 [I-330] | ≤ 0.01 µM | – | 5 to 10 µM | 0.5 to 5 µM
17 | Cc1ccc(CNC(=O)[C@@H]2CN(C(=O)c3cnn(Cc4ccccc4F)c3)CC23CN(C(=O)[C@H]2CC2(C)C)C3)nn1 [I-407] | > 10 µM | – | – | > 20 µM
18 | CNC(=O)[C@@H](NC(=O)[C@@H]1CN(C(=O)c2cncs2)CC12CN(C(=O)[C@H]1CC1(C)C)C2)c1nnc(C2CCCCC2)o1 [I-429] | 1 to 10 µM | – | > 10 µM | > 20 µM
19 | C[C@@H](OCC1CCOCC1)[C@@H](COC(F)F)NC(=O)[C@@H]1CN(C(=O)c2cncs2)CC12CN(C(=O)[C@H]1CC1(C)C)C2 [I-441] | 0.1 to 1 µM | – | – | > 20 µM
20 | C[C@@H](OCC1CCOCC1)[C@H](NC(=O)[C@@H]1CN(C(=O)c2cncs2)CC12CN(C(=O)[C@H]1CC1(C)C)C2)C(=O)N1CCC(c2ccncc2)CC1 [I-442] | ≤ 0.01 µM | – | – | 5 to 20 µM
21 | COC[C@H]1CCCN(C(=O)[C@@H](NC(=O)[C@@H]2CN(C(=O)c3cncs3)CC23CN(C(=O)[C@H]2CC2(C)C)C3)[C@@H](C)O[C@H](C)C2CCCCC2)C1 [I-466] | – | 0.5 to 5 µM | 0.5 to 5 µM | –
22 | C[C@@H](OCC1CCC(F)(F)CC1)[C@H](NC(=O)[C@@H]1CN(C(=O)c2cncs2)CC12CN(C(=O)[C@H]1CC1(C)C)C2)C(=O)N1C2CCC1COC2 [I-468] | – | – | ≤ 0.5 µM | ≤ 0.5 µM
23 | C[C@@H](OCC1CCC(F)(F)CC1)[C@H](NC(=O)[C@@H]1CN(C(=O)c2cncs2)CC12CN(C(=O)[C@H]1CC1(C)C)C2)C(=O)N1CC2CCC(C1)O2 [I-469] | ≤ 0.01 µM | – | 0.5 to 5 µM | ≤ 0.5 µM
24 | CC1(C)C[C@@H]1C(=O)N1CC2(CN(C(=O)c3cncs3)C[C@H]2C(=O)NC(c2cccc(C3CCCCC3)n2)P(C)(C)=O)C1 (stereo partly shown) [I-494] | – | – | > 10 µM | > 20 µM
25 | CC1(C)C[C@@H]1C(=O)N1CC2(CN(C(=O)c3cncs3)C[C@H]2C(=O)NC(c2cccc(C3CCCCC3)n2)C2COCCO2)C1 (stereo partly shown) [I-496] | – | – | > 10 µM | 5 to 20 µM
